The values that follow come from ChEMBL document CHEMBL5223190, “Discovery of Bis-sulfonamides as Novel Inhibitors of Mitochondrial NADH-Quinone Oxidoreductase (Complex I)” (ACS Med Chem Lett, 2023).

Activity calls are given as the source filed them. The calls are words filed in the database; no cut-off is given here. Some results are limits rather than exact numbers.

Molecular target in one assay: not listed separately
As to the kind of experiment: Inhibition of bovine heart NADH oxidase activity using submitochondrial particle as source of enzyme measured after 4 mins.
Details: not given
Type of assay: mitochondria, Bos taurus, Mitochondria.
The molecule `CCCCCc1ccc(S(=O)(=O)N2CCC[C@H]2COCOC[C@@H]2CCCN2S(=O)(=O)c2ccc(CCCCC)cc2)cc1` had an IC50 of 150 nM.
`CCCCCCCCCCS(=O)(=O)N1CCC[C@H]1COCOC[C@@H]1CCCN1S(=O)(=O)CCCCCCCCCC` had an IC50 of 88 nM.
With `CCCCCCOCCCS(=O)(=O)N1CCC[C@H]1COCOC[C@@H]1CCCN1S(=O)(=O)CCCOCCCCCC`, the IC50 came out at 260 nM.
On to `Cc1ccc(OCCCS(=O)(=O)N2CCC[C@H]2COCOC[C@@H]2CCCN2S(=O)(=O)CCCOc2ccc(C)cc2)cc1`, for which 270 nM corresponded to half-maximal inhibition (IC50).
In the case of `CCCCCCCCS(=O)(=O)N1CCC[C@H]1COCOC[C@@H]1CCCN1S(=O)(=O)CCCCCCCC`, the IC50 came out at 360 nM.
For `COCOC[C@@H]1CCCN1S(=O)(=O)c1ccc(C)cc1`, 85000 nM corresponded to half-maximal inhibition (IC50).
On the same count and under the same terms, next, `Cc1ccc(S(=O)(=O)N2CCC[C@@H]2COCOC[C@H]2CCCN2S(=O)(=O)c2ccc(C)cc2)cc1`: 3100 nM.
On the same count and under the same terms, in the case of `COc1ccc(S(=O)(=O)N2CCC[C@H]2COCOC[C@@H]2CCCN2S(=O)(=O)c2ccc(OC)cc2)cc1` it was 4400 nM.
`Cc1ccc(S(=O)(=O)N2[C@H](COCOC[C@@H]3C[C@@H]4CCCC[C@@H]4N3S(=O)(=O)c3ccc(C)cc3)C[C@@H]3CCCC[C@@H]32)cc1`: the IC50 came to 5800 nM.
For the molecule `CCCCCCCCCCS(=O)(=O)N1CCC[C@H]1COCOC[C@@H]1CCCN1S(=O)(=O)CCCOCCCCCC`, the IC50 amounted to 48 nM.
Consider `Cc1ccc(S(=O)(=O)N2CC[C@@H](OCO[C@@H]3CCN(S(=O)(=O)c4ccc(C)cc4)C3)C2)cc1`, for which the half-maximal inhibitory concentration (IC50) is 31000 nM.
Same read-out and setting: in the case of `Cc1ccc(S(=O)(=O)N2CCC[C@H]2COCOCc2ccccc2)cc1` it was 4600 nM; in that of `Cc1ccc(S(=O)(=O)N2CC[C@@H](COCOC[C@@H]3CCN(S(=O)(=O)c4ccc(C)cc4)C3)C2)cc1`, 1300 nM.
Regarding `Cc1ccc(S(=O)(=O)N2CC[C@H]2COCOC[C@@H]2CCN2S(=O)(=O)c2ccc(C)cc2)cc1`, the IC50 was 870 nM.
In the case of `Cc1ccc(S(=O)(=O)N2CCC[C@H]2CCOCOCC[C@@H]2CCCN2S(=O)(=O)c2ccc(C)cc2)cc1`, the IC50 was 620 nM.
Same read-out and setting: next, `CCCCCCc1ccc(S(=O)(=O)N2CCC[C@H]2COCOC[C@@H]2CCCN2S(=O)(=O)c2ccc(CCCCCC)cc2)cc1`: 98 nM.
In turn, `Cc1ccc(S(=O)(=O)N2CCC[C@H]2COCOCCCc2ccccc2)cc1` displayed an IC50 of 1100 nM.
Molecule `CCCCCCCCCCCCS(=O)(=O)N1CCC[C@H]1COCOC[C@@H]1CCCN1S(=O)(=O)CCCCCCCCCCCC` returned an IC50 of 6500 nM.
For the molecule `Cc1ccc(S(=O)(=O)N2CCC[C@@H]2COCOC[C@@H]2CCCN2S(=O)(=O)c2ccc(C)cc2)cc1`, the IC50 is 810 nM.
`CCCCc1ccc(S(=O)(=O)N2CCC[C@H]2COCOC[C@@H]2CCCN2S(=O)(=O)c2ccc(CCCC)cc2)cc1` gave an IC50 of 140 nM.
For the molecule `Cc1ccc(S(=O)(=O)N(C)CCOCOCCN(C)S(=O)(=O)c2ccc(C)cc2)cc1`, the IC50 worked out at 6400 nM.
`O=S(=O)(CCCOc1ccc(I)cc1)N1CCC[C@H]1COCOC[C@@H]1CCCN1S(=O)(=O)CCCOc1ccc(I)cc1` registered an IC50 of 14 nM.
With `CCCCCCCCCCS(=O)(=O)N1CCC[C@H]1COCOC[C@@H]1CCCN1S(=O)(=O)CCCOc1ccccc1`, half-maximal inhibition (IC50) was put at 150 nM.
Molecule `Cc1ccc(S(=O)(=O)N2CCC[C@H]2COCOC[C@@H]2CCCN2S(=O)(=O)c2ccc(C)cc2)cc1` registered an IC50 of 890 nM.
The same measure, in the same setting: in the case of `CCCCCCCCCCS(=O)(=O)N1CCC[C@H]1COCOC[C@@H]1CCCN1S(=O)(=O)CCCOc1ccc(C)cc1` it was 72 nM; in that of `O=S(=O)(CCCOc1ccccc1)N1CCC[C@H]1COCOC[C@@H]1CCCN1S(=O)(=O)CCCOc1ccccc1`, 2400 nM; in that of `O=S(=O)(c1ccc(Cl)cc1)N1CCC[C@H]1COCOC[C@@H]1CCCN1S(=O)(=O)c1ccc(Cl)cc1`, 1100 nM.
Molecule `O=S(=O)(c1ccccc1)N1CCC[C@H]1COCOC[C@@H]1CCCN1S(=O)(=O)c1ccccc1` had an IC50 of 4100 nM.
In the case of `CCCCCCCCc1ccc(S(=O)(=O)N2CCC[C@H]2COCOC[C@@H]2CCCN2S(=O)(=O)c2ccc(CCCCCCCC)cc2)cc1`, the IC50 turned out to be 3400 nM.
On to `Cc1ccc(C(=O)N2CCC[C@H]2COCOC[C@@H]2CCCN2C(=O)c2ccc(C)cc2)cc1`, for which the IC50 was 5000 nM.
Turning to `CCCCCCCc1ccc(S(=O)(=O)N2CCC[C@H]2COCOC[C@@H]2CCCN2S(=O)(=O)c2ccc(CCCCCCC)cc2)cc1`, the IC50 stood at 3600 nM.
In turn, `Cc1ccc(S(=O)(=O)N2CCCC[C@H]2COCOC[C@@H]2CCCCN2S(=O)(=O)c2ccc(C)cc2)cc1` returned a concentration for half-maximal inhibition (IC50) of 2600 nM.
For `CCCCCCCCCCS(=O)(=O)N1CCC[C@H]1COCOC[C@@H]1CCCN1S(=O)(=O)CCCOc1ccc(I)cc1`, the IC50 was found to be 17 nM.
Still for that read-out and setting: next, `Cc1ccc(S(=O)(=O)N2CCC[C@H]2CO)cc1`: over 230000 nM; `CC1(CCCCCCCCS(=O)(=O)N2CCC[C@H]2COCOC[C@@H]2CCCN2S(=O)(=O)CCCOc2ccc(I)cc2)N=N1`: 16 nM.

Molecular target in the next assay: not listed separately
As to the kind of experiment: Inhibition of bovine heart succinate-cytochrome c oxidoreductase activity using submitochondrial particle as source of enzyme measured after 4 mins. Type of assay: mitochondria, Bos taurus, Mitochondria.
Details: not given
`O=S(=O)(CCCOc1ccc(I)cc1)N1CCC[C@H]1COCOC[C@@H]1CCCN1S(=O)(=O)CCCOc1ccc(I)cc1` displayed an IC50 of over 20 µM.
On to `CCCCCCCCCCS(=O)(=O)N1CCC[C@H]1COCOC[C@@H]1CCCN1S(=O)(=O)CCCOc1ccc(I)cc1`, for which the IC50 is over 20 µM.

Molecular target in another assay: not listed separately
Put plainly: Inhibition of bovine heart NADH-Q1 oxidoreductase (complex 1) oxidase activity using submitochondrial particle as source of enzyme measured after 4 mins. Type of assay: mitochondria, Bos taurus, Mitochondria.
Details: not given
For the molecule `O=S(=O)(CCCOc1ccc(I)cc1)N1CCC[C@H]1COCOC[C@@H]1CCCN1S(=O)(=O)CCCOc1ccc(I)cc1`, the IC50 stood at 26 nM.
For the molecule `CCCCCCCCCCS(=O)(=O)N1CCC[C@H]1COCOC[C@@H]1CCCN1S(=O)(=O)CCCOc1ccc(I)cc1`, the IC50 was determined as 40 nM.

Another assay is filed under the species Bos taurus. Put plainly: Binding affinity to bovine heart NADH-Q1 oxidoreductase (complex 1) oxidase activity using submitochondrial particle as source of enzyme using [125I]-(S)-2-{[(tert-butyldiphenylsilyl)oxy]methyl}-1-{[3-(hexyloxy)propyl]sulfonyl}pyrrolidine by SDS-PAGE analysis. The settings on record: Mitochondria.
As for `O=S(=O)(CCCOc1ccc(I)cc1)N1CCC[C@H]1COCOC[C@@H]1CCCN1S(=O)(=O)CCCOc1ccc(I)cc1`, the outcome was Active.
On the same count and under the same terms, in the case of `CCCCCCCCCCS(=O)(=O)N1CCC[C@H]1COCOC[C@@H]1CCCN1S(=O)(=O)CCCOc1ccc(I)cc1` it was “Active”.
